Test results taken from patent US20230066830A1, “METHODS AND COMPOSITIONS FOR INDUCING APOPTOSIS IN CANCER STEM CELLS” (VIRGINIA COMMONWEALTH UNIVERSITY, priority 2019, published 2023).

Legend:
[1] = target: T1, PDZ1 domain of MDA-9/Syntenin (PDZ12) (Homo sapiens, UniProt O00560); experiment: [15N,1H] HSQC chemical shift change ranking of compound affinity; format: binding; conditions: chemical shift changes (DPPM) of backbone amide of residue 147, 50 μM PDZ12, compound at 1:1 molar ratio
T1 construct: HSQC spectrum of 50 μM PDZ12 caused by compound at 1:1 molar ratio
T1 sequence (O00560 110-273 limits assumed): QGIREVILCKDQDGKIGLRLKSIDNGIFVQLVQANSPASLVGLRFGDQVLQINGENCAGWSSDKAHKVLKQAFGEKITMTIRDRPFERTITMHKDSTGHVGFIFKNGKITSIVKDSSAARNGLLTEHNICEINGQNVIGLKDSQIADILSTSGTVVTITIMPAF
Text: *Rank ordering of compound affinity for PDZ1 were estimated based on chemical shift changes (DPPM) of the backbone amide of residue 147 on the [^15N,^1H] […] Kd values reported in parentheses were obtained by NMR titration experiments following the chemical shifts of the backbone amide of residue 147 at different ligand concentrations.

DU-145 and PC3-ML PCSCs = experiment: Live/Dead chemosensitivity of PCSCs with STAT3 inhibitor; format: cell-based, human; conditions: STAT3 inhibitor with docetaxel or trichostatin-A
Protocol: Live/Dead cell imaging was performed to assess fluorescence based cell viability. Staining was performed as per the manufacturer's directions (Invitrogen™), which was followed by imaging utilizing laser confocal microscopy (Leica©). The images were analyzed by Zeiss© ZEN software. Docetaxel, STATTIC and Trichostatin-A (TSA) were obtained from Sigma. The PCSCs were serum-starved for 24 h and then treated with the drugs for 48 h at a 10 μM concentration (unless mentioned otherwise) prior to assessing the sensitivity of PCSCs to these drugs. DMSO treated cells were used as control. In vitro PDZ1i treatments occurred at 25 μM concentration. In vivo PDZ1i treatments occurred at 25 mg/kg body weight of the mice, 3 times a week for a month.

SMILES | Binding affinity ranking [1] | effect on PCSC chemosensitivity (DU-145 and PC3-ML PCSCs)
Cc1cc(=O)n2nc(C(=O)Nc3cccc(Cl)c3)nc2[nH]1 [cmpd10] | 4 (4 for DPPM 0.06-0.08) | 
Cc1cc(NC(=O)c2nc3[nH]c4c(c(=O)n3n2)CCC4)c(C)cc1NC(=O)Cc1ccc(-c2ccccc2)cc1 [113B9] | N.B. | 
Cc1cc(=O)n2nc(C(=O)Nc3ccc4c(c3)OCO4)nc2[nH]1 [cmpd9] | 3 (3 for DPPM 0.04-0.06) | 
Cc1cc(=O)n2nc(CCc3ccccc3)nc2[nH]1 [cmpd2] | 3 (3 for DPPM 0.04-0.06) | 
Nc1ccc(NC(=O)c2nc3[nH]c4c(c(=O)n3n2)CCC4)cc1 [112G11] | 2 (2 for DPPM 0.02-0.04) | 
Cc1c(C)c(NC(=O)c2nc3[nH]c4c(c(=O)n3n2)CCC4)c(C)c(C)c1N [113B8] | 5 (5 for DPPM 0.08-0.1) | 
O=c1c2c([nH]c3nc(NCc4cccs4)nn13)CCC2 [cmpd3] | 1 (1 for DPPM 0.00-0.02) | 
COc1cccc(NC(=O)c2nc3[nH]c(C)cc(=O)n3n2)c1 [cmpd8] | 3 (3 for DPPM 0.04-0.06) | 
Cc1cc(=O)n2nc(C(=O)Nc3ccc(N)cc3)nc2[nH]1 [112E7] | 1 (1 for DPPM 0.00-0.02) | 
Cc1cc(O)n2nc(C(=O)Nc3ccc(O)cc3)nc2n1 [112F1] | 1 (1 for DPPM 0.00-0.02) | 
Cc1cc(=O)n2nc(C(=O)Nc3ccc4c(c3)OCCO4)nc2[nH]1 [cmpd7] | 2 (2 for DPPM 0.02-0.04) | 
Cc1cc(=O)n2nc(C(=O)Nc3cc(Cl)c(N)cc3Cl)nc2[nH]1 [112G4] | 6 (6 for DPPM above 0.1) | 
O=[N+]([O-])c1ccc2c(c1)S(=O)(=O)C=C2 [STATTIC] |  | caused chemosensitivity to both docetaxel and trichostatin-A
COc1ccc(Br)c(-c2nnc(CCC(=O)Nc3cc(C)c(NC(=O)c4nc5[nH]c6c(c(=O)n5n4)CCC6)cc3C)o2)c1 [113B12] | 1 (1 for DPPM 0.00-0.02) | 
Cc1cc(=O)n2nc(NCc3ccccc3)nc2[nH]1 [cmpd1] | 2 (2 for DPPM 0.02-0.04) | 
Cc1cc(=O)n2nc(C(=O)Nc3ccc(O)cc3)nc2[nH]1 [112D11] | 2 (2 for DPPM 0.02-0.04) | 

SMILES | Binding affinity ranking [1] | effect on PCSC chemosensitivity (DU-145 and PC3-ML PCSCs)
CCCc1cc(=O)n2nc(COc3ccccc3)nc2[nH]1 [cmpd14] | 1 (1 for DPPM 0.00-0.02) | 
Cc1cc(=O)n2nc(SCc3ccccc3)nc2[nH]1 [cmpd4] | 4 (4 for DPPM 0.06-0.08) | 
Cc1cc(NC(=O)c2nc3[nH]c4c(c(=O)n3n2)CCC4)c(C)cc1NC(=O)CCc1nnc(-c2ccccc2)o1 [113B7] | 4 (4 for DPPM 0.06-0.08) | 
Cc1cc(NC(=O)c2nc3[nH]c4c(c(=O)n3n2)CCC4)c(C)cc1NC(=O)CCc1nnc(-c2ccsc2)o1 [113B11] | 3 (3 for DPPM 0.04-0.06) | 
O=C(Nc1ccc(O)c(Cl)c1)c1nc2[nH]c3c(c(=O)n2n1)CCC3 [112F10] | 4 (4 for DPPM 0.06-0.08) | 
Cc1[nH]c2nc(C(=O)NCc3ccccc3)nn2c(=O)c1C [cmpd5] | 2 (2 for DPPM 0.02-0.04) | 
Cc1cc(NC(=O)c2nc3[nH]c4c(c(=O)n3n2)CCC4)c(C)cc1NC(=O)CCc1nnc(-c2cccc(C(F)(F)F)c2)o1 [112H9] | 2 (2 for DPPM 0.02-0.04) | 
O=c1c2c([nH]c3nc(CCc4ccccc4)nn13)CCC2 [cmpd13] | 3 (3 for DPPM 0.04-0.06) | 
O=c1[nH]c2sc3c(c2c2ncnn12)CCCC3 [cmpd6] | 1 (1 for DPPM 0.00-0.02) | 
Cc1cc(=O)n2nc(COc3ccccc3)nc2[nH]1 [30A9] | 4 (4 for DPPM 0.06-0.08) | 
O=C(Nc1ccc(O)cc1)c1nc2[nH]c3c(c(=O)n2n1)CCC3 [112E12] | 1 (1 for DPPM 0.00-0.02) | 
Cc1cc(=O)n2nc(C(=O)Nc3ccc(O)c(F)c3)nc2[nH]1 [112G2] | 4 (4 for DPPM 0.06-0.08) | 
O=C(Nc1ccc(O)c(F)c1)c1nc2[nH]c3c(c(=O)n2n1)CCC3 [112F12] | 2 (2 for DPPM 0.02-0.04) | 
O=c1c2c([nH]c3nc(COc4ccccc4)nn13)CCC2 [cmpd11] | 5 (5 for DPPM 0.08-0.1) | 
Cc1cc(=O)n2nc(C(=O)Nc3cc(Cl)c(O)c(Cl)c3)nc2[nH]1 [112G1] | 6 (6 for DPPM above 0.1) | 
